For this data set the following is noted: for aqueous solubility: pH 6.8.

Molecules are shown by their SMILES. ≈ marks a conversion by molar mass, not a printed value. Some results are limits rather than exact numbers.

This note sets out measurements from the Biogen ADME set (Fang et al. 2023).

`O=C1CCC(=O)N1Cc1nc(Cc2ccccc2)cs1` came in with an intrinsic clearance, human liver microsomes of no more than 4.74 mL/min/kg and an intrinsic clearance, rat liver microsomes of 145 mL/min/kg.

In the case of `Cc1ccc2c(CC(=O)N(C)Cc3nnc4n3CCC4)coc2c1C`, the MDR1-MDCK efflux ratio worked out at 66.1; the intrinsic clearance, human liver microsomes was 36.5 mL/min/kg; the intrinsic clearance, rat liver microsomes came out at 651 mL/min/kg; the aqueous solubility (commonly how much of the substance goes into solution per volume) was 54.5 µg/mL (≈ 161 µM).

For `CCN(C(=O)c1cc(NC(C)=O)ccc1F)C1CCCC1`, the MDR1-MDCK efflux ratio worked out at 14.2; the intrinsic clearance, human liver microsomes was 63 mL/min/kg; the intrinsic clearance, rat liver microsomes was determined as 2210 mL/min/kg; the aqueous solubility came out at 48.8 µg/mL (≈ 167 µM).

As for `COCC1CCN(c2noc(-c3cccs3)n2)CC1`, the MDR1-MDCK efflux ratio amounted to 0.541; the intrinsic clearance, human liver microsomes turned out to be 39.6 mL/min/kg; the intrinsic clearance, rat liver microsomes came to 325 mL/min/kg; the aqueous solubility was 12.9 µg/mL (≈ 46.1 µM).

On to `Cc1nc(CN2C(=O)CN(C3CCCC3)C2=O)nc2ccccc12`, for which the MDR1-MDCK efflux ratio was 1.54; the intrinsic clearance, human liver microsomes was no more than 4.74 mL/min/kg; the intrinsic clearance, rat liver microsomes amounted to 823 mL/min/kg; the aqueous solubility is 43 µg/mL (≈ 132 µM).

In turn, `CC(=O)N1CCCC(C(=O)N2CCc3c(cccc3C(C)C)C2)C1` (stereo not given) returned an intrinsic clearance, human liver microsomes of 46 mL/min/kg; an intrinsic clearance, rat liver microsomes of 506 mL/min/kg; an aqueous solubility of 55 µg/mL (≈ 167 µM).

For `Cc1nc2c(c(N(C)Cc3ccccc3)n1)CCN(Cc1ccccc1)C2`, the MDR1-MDCK efflux ratio was determined as 0.742; the intrinsic clearance, human liver microsomes was found to be 657 mL/min/kg; the intrinsic clearance, rat liver microsomes turned out to be 4170 mL/min/kg; the aqueous solubility came out at 29.7 µg/mL (≈ 82.8 µM).

As to `Cc1nn(-c2ccc(C(=O)O)cc2C#Cc2ccccc2)c(C)c1C`, the MDR1-MDCK efflux ratio turned out to be 3.82; the intrinsic clearance, human liver microsomes is no more than 4.74 mL/min/kg; the intrinsic clearance, rat liver microsomes was 595 mL/min/kg; the aqueous solubility was 46.4 µg/mL (≈ 140 µM).

Turning to `COc1cccc(CN2CCc3nc(-c4cnccn4)nc(O)c3C2)c1`, the intrinsic clearance, human liver microsomes was no more than 4.74 mL/min/kg and the intrinsic clearance, rat liver microsomes is 26.6 mL/min/kg.

Take `Cn1cnnc1-c1cccc(NS(=O)(=O)c2ccc(N3CCCC3=O)cc2)c1`: the MDR1-MDCK efflux ratio turned out to be 3.7; the intrinsic clearance, human liver microsomes is no more than 4.74 mL/min/kg; the intrinsic clearance, rat liver microsomes came out at 18 mL/min/kg; the aqueous solubility stood at 56.6 µg/mL (≈ 142 µM).

Regarding `CSc1ccccc1NC(=O)CN1CCCC(c2nc3ccccc3o2)C1` (stereo not given), the intrinsic clearance, human liver microsomes was found to be 1120 mL/min/kg; the intrinsic clearance, rat liver microsomes is 4670 mL/min/kg; the aqueous solubility is 8.5 µg/mL (≈ 22.3 µM).

In the case of `CCc1cc(=O)[nH]c(SCCCCC2CCOCC2)n1`, the MDR1-MDCK efflux ratio turned out to be 1.12; the intrinsic clearance, human liver microsomes amounted to 34.2 mL/min/kg; the intrinsic clearance, rat liver microsomes was determined as 287 mL/min/kg.

In the case of `Cc1cccc(-n2c(S)nnc2CNc2ccc(F)cc2)c1`, the MDR1-MDCK efflux ratio came to 2.44; the intrinsic clearance, human liver microsomes came to 17.2 mL/min/kg; the intrinsic clearance, rat liver microsomes stood at 188 mL/min/kg; the aqueous solubility stood at 50.2 µg/mL (≈ 160 µM).

Consider `O=C(NCc1ccc(F)cc1)C1CCN(C(=O)/C=C/c2ccc(F)cc2)CC1`, for which the MDR1-MDCK efflux ratio amounted to 6.14; the intrinsic clearance, human liver microsomes was no more than 4.74 mL/min/kg; the intrinsic clearance, rat liver microsomes is 106 mL/min/kg; the aqueous solubility was determined as 3.03 µg/mL (≈ 7.88 µM).

Consider `CC(C)(C)c1csc(CCNC(=O)N2CCSCC2)n1`, for which the MDR1-MDCK efflux ratio was 1.14; the intrinsic clearance, human liver microsomes came to 127 mL/min/kg; the intrinsic clearance, rat liver microsomes worked out at 956 mL/min/kg; the aqueous solubility came out at 69.1 µg/mL (≈ 220 µM).

In the case of `Cc1ccc(S(=O)(=O)Nc2ccc3c(c2)c2c(n3S(=O)(=O)c3ccc(C)cc3)CCC2)cc1`, the intrinsic clearance, human liver microsomes was 230 mL/min/kg and the intrinsic clearance, rat liver microsomes was determined as 1490 mL/min/kg.

Take `CSCC(=O)Nc1nc(-c2ccc(C3CCCCC3)cc2)cs1`: the MDR1-MDCK efflux ratio turned out to be 0.695 and the aqueous solubility was found to be 0.37 µg/mL (≈ 1.07 µM).

For `O=c1cc2c(n[nH]1)-c1cnc(N3CCCC3)nc1CC2`, the MDR1-MDCK efflux ratio came to 0.748; the intrinsic clearance, human liver microsomes amounted to 6.66 mL/min/kg; the intrinsic clearance, rat liver microsomes worked out at 103 mL/min/kg.
